Results reported in US9149478B2, “Diabetes therapy” (Boehringer Ingelheim International GmbH, priority 2010, dated 2015).

Tests used:
[1] = in vivo; cited from earlier work
[2] = Safety and tolerability in people with type 2 diabetes
[3] = Pharmacokinetic profile of linagliptin (general statement); conditions: in vivo
[4] = Pharmacokinetics of BI 1356 after multiple oral doses once daily for 12 days in patients with type 2 diabetes; conditions: for feτ,ss: steady state (Day 12); for feτ,ss / fe0-24: gMean (gCV); for fe0-24: fraction excreted in urine
[5] = tested on: non-obese-diabetic (NOD) mice; assay: Onset of diabetes and stereological pancreas assessment in NOD mice over 60 days; assay type: in vivo, mouse; conditions: female NOD mice
Source text: Though reduced pancreatic T-cell migration and altered cytokine production is considered important players for the onset of insulinitis the exact mechanism and effects on the pancreatic cell pool is still incompletely understood.
Bi-weekly plasma samples are obtained to determine onset of diabetes (BG>11 mmol/l).

half-life [3] | feτ,ss ([4]; 1 mg oral once daily) | feτ,ss ([4]; 2.5 mg oral once daily) | fe0-24 ([4]; 2.5 mg oral once daily) | feτ,ss ([4]; 5 mg oral once daily) | fe0-24 ([4]; 5 mg oral once daily) | feτ,ss ([4]; 10 mg oral once daily) | fe0-24 ([4]; 10 mg oral once daily) | mean accumulation ratio RA,AUC ([4]; doses above 1 mg, oral once daily) | excreted via the kidney ([4]; therapeutic oral dose levels) | Compound | duration of action [1] | safety and tolerability [2] | route of excretion ([4]; therapeutic oral dose levels) | incidence of diabetes (BG>11 mmol/l) at the end of the study period ([5]; 0.083 g linagliptin/kg chow (3-10 mg/kg p.o.), 60 days) | beta cell mass (insulin immunoreactivity) ([5]; linagliptin in chow, 60 days, stereology) | active plasma GLP-1 at termination ([5]; linagliptin in chow, versus control)
 |  |  |  |  |  |  |  |  |  | N^εB29-(N^α-(ω-carboxypentadecanoyl)-L-γ-glutamyl) des(B30) human insulin [Insulin degludec] | more than 24 hours |  |  |  |  | 
≤ 72 h | 3.34 (38.3) % | 3.06 (45.1) % | 0.139 (51.2) % | 6.27 (42.2) % | 0.453 (125) % | 3.22 (34.2) % | 0.919 (115) % | ≤ 1.4 | < 7 % of the administered oral dose | CC#CCn1c(N2CCC[C@@H](N)C2)nc2c1c(=O)n(Cc1nc(C)c3ccccc3n1)c(=O)n2C [BI 1356, 1-[(4-methyl-quinazolin-2-yl)methyl]-3-methyl-7-(2-butyn-1-yl)-8-(3-(R)-amino-piperidin-1-yl)-xanthine] |  | placebo-like safety and tolerability | primarily excreted unchanged via the bile | 9 out of 30 | 0.48 ± 0.09 mg | higher
